Test results: US20240109917A1 (ACTELION PHARMACEUTICALS LTD, priority 2020, published 2024)

How the values were obtained:
[1] = biological target: Tb-labeled inactive PDGFRβ (Homo sapiens (Human), UniProt P09619); experiment: PDGFRβ LanthaScreen Assay; format: binding; details: read-out: PDGFR Lantha IC50
[2] = biological target: His6-TEV-PDGFRβ (557-1016) (Homo sapiens (Human), UniProt P09619); experiment: PDGFRβ HTRF Assay; format: biochemical; details: read-out: PDGFR HTRF IC50
In short: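 HTRF KinEASE-TK readout (665/620 nm ratio) of TK-biotin substrate phosphorylation by His-tagged PDGFRβ kinase domain. Enzyme and inhibitor preincubated 30 min, then ATP/substrate added for 3 h at room temperature before 60 min EDTA quench/detection.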

His6-TEV-PDGFRβ (557-1016), sequence (P09619 557-1016): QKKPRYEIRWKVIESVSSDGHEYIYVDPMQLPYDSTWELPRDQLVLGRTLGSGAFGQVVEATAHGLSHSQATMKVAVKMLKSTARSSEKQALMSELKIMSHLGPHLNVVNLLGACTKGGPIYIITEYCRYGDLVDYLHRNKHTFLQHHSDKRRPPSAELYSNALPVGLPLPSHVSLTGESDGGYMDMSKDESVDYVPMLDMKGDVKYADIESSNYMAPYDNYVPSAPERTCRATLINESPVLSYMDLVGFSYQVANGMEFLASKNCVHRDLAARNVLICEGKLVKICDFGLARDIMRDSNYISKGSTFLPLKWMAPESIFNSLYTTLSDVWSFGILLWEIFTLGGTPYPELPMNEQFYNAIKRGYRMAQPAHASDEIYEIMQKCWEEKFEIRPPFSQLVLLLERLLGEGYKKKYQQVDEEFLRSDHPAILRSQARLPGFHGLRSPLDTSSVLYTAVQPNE
Tb-labeled inactive PDGFRβ, sequence (P09619 33-1106): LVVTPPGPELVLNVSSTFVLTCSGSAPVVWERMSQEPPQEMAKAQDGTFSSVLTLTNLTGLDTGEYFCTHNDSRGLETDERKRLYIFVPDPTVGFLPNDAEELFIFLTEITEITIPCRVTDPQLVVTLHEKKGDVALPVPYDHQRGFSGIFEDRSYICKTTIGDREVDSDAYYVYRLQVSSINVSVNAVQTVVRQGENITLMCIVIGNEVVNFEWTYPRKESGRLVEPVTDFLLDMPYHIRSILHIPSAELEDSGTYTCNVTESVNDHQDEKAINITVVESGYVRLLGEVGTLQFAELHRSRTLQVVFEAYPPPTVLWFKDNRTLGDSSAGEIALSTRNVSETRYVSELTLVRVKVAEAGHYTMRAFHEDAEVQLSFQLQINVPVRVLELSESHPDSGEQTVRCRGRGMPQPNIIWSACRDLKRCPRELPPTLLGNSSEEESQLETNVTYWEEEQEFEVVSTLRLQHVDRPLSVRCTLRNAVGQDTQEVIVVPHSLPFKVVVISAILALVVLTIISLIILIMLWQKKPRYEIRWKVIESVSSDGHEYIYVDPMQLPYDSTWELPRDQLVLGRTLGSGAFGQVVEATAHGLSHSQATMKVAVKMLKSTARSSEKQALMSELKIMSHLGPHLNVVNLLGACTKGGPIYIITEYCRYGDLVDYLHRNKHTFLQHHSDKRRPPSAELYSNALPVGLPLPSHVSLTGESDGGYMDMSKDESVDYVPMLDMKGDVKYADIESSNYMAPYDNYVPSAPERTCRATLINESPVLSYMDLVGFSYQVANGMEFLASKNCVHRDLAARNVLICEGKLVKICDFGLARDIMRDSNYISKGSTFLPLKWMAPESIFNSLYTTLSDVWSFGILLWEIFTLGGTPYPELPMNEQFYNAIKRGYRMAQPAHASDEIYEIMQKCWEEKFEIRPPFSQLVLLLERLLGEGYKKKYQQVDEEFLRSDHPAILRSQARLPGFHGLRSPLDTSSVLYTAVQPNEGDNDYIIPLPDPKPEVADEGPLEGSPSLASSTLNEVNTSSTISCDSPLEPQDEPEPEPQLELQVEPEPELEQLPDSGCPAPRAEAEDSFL

Row | SMILES | IC50 [1] [nM] | IC50 [2] [nM]
1 | Cc1ncc(NC(=O)CN2CCOCC23CC3)cc1NC(=O)c1cnn2cc(-c3cnn(C)c3)sc12 [Example 47, N-(5-(2-(7-oxa-4-azaspiro[2.5]octan-4-yl)acetamido)-2-methylpyridin-3-yl)-2-(1-methyl-1H-pyrazol-4-yl)pyrazolo[5,1-b]thiazole-7-carboxamide] | 16.5 | 0.9
2 | Cc1ncc(NC(=O)OC[C@@H]2CCCN2C)cc1NC(=O)c1cnn2cc(-c3cn(C)nc3C)sc12 [Example 496, (S)-(1-methylpyrrolidin-2-yl)methyl (5-(2-(1,3-dimethyl-1H-pyrazol-4-yl)pyrazolo[5,1-b]thiazole-7-carboxamido)-6-methylpyridin-3-yl)carbamate] | 2.8 | 0.3
3 | Cc1ncc(NC(=O)CN2CCOC[C@H]2C)cc1NC(=O)c1cnn2cc(-c3cnn(C)c3)sc12 [Example 50, (R)-2-(1-methyl-1H-pyrazol-4-yl)-N-(2-methyl-5-(2-(3-methylmorpholino)acetamido)pyridin-3-yl)pyrazolo[5,1-b]thiazole-7-carboxamide] | 14 | 0.6
4 | Cc1ncc(NC(=O)CCN2CCCC2(C)C)cc1NC(=O)c1cnn2cc(-c3cnn(C)c3)sc12 [Example 42, N-(5-(3-(2,2-dimethylpyrrolidin-1-yl)propanamido)-2-methyl-pyridin-3-yl)-2-(1-methyl-1H-pyrazol-4-yl)pyrazolo[5,1-b]thiazole-7-carboxamide] | 3.8 | 0.28
5 | COCCn1cc(-c2cn3ncc(C(=O)Nc4cc(NC(=O)CCN5C[C@H]6CC[C@@H]5C6)cnc4C)c3s2)cn1 [Example 94, N-(5-(3-((1R,4S)-2-azabicyclo[2.2.1]heptan-2-yl)propanamido)-2-methylpyridin-3-yl)-2-(1-(2-methoxyethyl)-1H-pyrazol-4-yl)pyrazolo[5,1-b]thiazole-7-carboxamide] | 14.2 | 0.5
6 | Cc1ncc(NC(=O)CN2CCC2(C)C)cc1NC(=O)c1cnn2cc(-c3cnn(C)c3)sc12 [Example 82, N-(5-(2-(2,2-dimethylazetidin-1-yl)acetamido)-2-methylpyridin-3-yl)-2-(1-methyl-1H-pyrazol-4-yl)pyrazolo[5,1-b]thiazole-7-carboxamide] | 24.3 | 1.6
7 | Cc1ncc(NC(=O)CN2CCOCC2(C)C)cc1NC(=O)c1cnn2cc(-c3cnn(C)c3)sc12 [Example 68, N-(5-(2-(3,3-dimethylmorpholino)acetamido)-2-methylpyridin-3-yl)-2-(1-methyl-1H-pyrazol-4-yl)pyrazolo[5,1-b]thiazole-7-carboxamide] | 8.1 | 0.8
8 | Cc1ncc(NC(=O)CN2CCCOCC2)cc1NC(=O)c1cnn2cc(-c3cnn(C)c3)sc12 [Example 80, N-(5-(2-(1,4-oxazepan-4-yl)acetamido)-2-methylpyridin-3-yl)-2-(1-methyl-1H-pyrazol-4-yl)pyrazolo[5,1-b]thiazole-7-carboxamide] | 19.3 | 1.4
9 | Cc1ncc(NC(=O)CN2CCc3scnc3C2)cc1NC(=O)c1cnn2cc(-c3cnn(C)c3)sc12 [Example 61, N-(5-(2-(6,7-dihydrothiazolo[4,5-c]pyridin-5 (4H)-yl)acetamido)-2-methylpyridin-3-yl)-2-(1-methyl-1H-pyrazol-4-yl)pyrazolo[5,1-b]thiazole-7-carboxamide] | 12.3 | 0.8
10 | COCC1CCCN1CC(=O)Nc1cnc(C)c(NC(=O)c2cnn3cc(-c4cnn(C)c4)sc23)c1 (centres unmarked) [Example 79, N-(5-(2-(2-(methoxymethyl)pyrrolidin-1-yl)acetamido)-2-methylpyridin-3-yl)-2-(1-methyl-1H-pyrazol-4-yl)pyrazolo[5,1-b]thiazole-7-carboxamide] | 10.9 | 0.8
11 | Cc1ncc(NC(=O)CN2CCc3ncccc3C2)cc1NC(=O)c1cnn2cc(-c3cnn(C)c3)sc12 [Example 63, N-(5-(2-(7,8-dihydro-1,6-naphthyridin-6 (5H)-yl)acetamido)-2-methylpyridin-3-yl)-2-(1-methyl-1H-pyrazol-4-yl)pyrazolo[5,1-b]thiazole-7-carboxamide] | 42.9 | 2.9
12 | CC[C@@H]1CN(CC(=O)Nc2cnc(C)c(NC(=O)c3cnn4cc(-c5cnn(C)c5)sc34)c2)CCO1 [Example 65, (R)—N-(5-(2-(2-ethylmorpholino)acetamido)-2-methylpyridin-3-yl)-2-(1-methyl-1H-pyrazol-4-yl)pyrazolo[5,1-b]thiazole-7-carboxamide] | 16.5 | 0.7
13 | CC[C@H]1CN(CC(=O)Nc2cnc(C)c(NC(=O)c3cnn4cc(-c5cnn(C)c5)sc34)c2)CCO1 [Example 66, (S)—N-(5-(2-(2-ethylmorpholino)acetamido)-2-methylpyridin-3-yl)-2-(1-methyl-1H-pyrazol-4-yl)pyrazolo[5,1-b]thiazole-7-carboxamide] | 2.6 | 0.3
